The structures appear in SMILES notation. Where a name gives a salt, the structure may show the parent alone.

The first assay has as its target T1, Human FAAH (Homo sapiens, UniProt O00519).
T1 construct: The full length FAAH was subcloned into the mammalian expression vector, peDEF.neo
T1 sequence (O00519 1-579): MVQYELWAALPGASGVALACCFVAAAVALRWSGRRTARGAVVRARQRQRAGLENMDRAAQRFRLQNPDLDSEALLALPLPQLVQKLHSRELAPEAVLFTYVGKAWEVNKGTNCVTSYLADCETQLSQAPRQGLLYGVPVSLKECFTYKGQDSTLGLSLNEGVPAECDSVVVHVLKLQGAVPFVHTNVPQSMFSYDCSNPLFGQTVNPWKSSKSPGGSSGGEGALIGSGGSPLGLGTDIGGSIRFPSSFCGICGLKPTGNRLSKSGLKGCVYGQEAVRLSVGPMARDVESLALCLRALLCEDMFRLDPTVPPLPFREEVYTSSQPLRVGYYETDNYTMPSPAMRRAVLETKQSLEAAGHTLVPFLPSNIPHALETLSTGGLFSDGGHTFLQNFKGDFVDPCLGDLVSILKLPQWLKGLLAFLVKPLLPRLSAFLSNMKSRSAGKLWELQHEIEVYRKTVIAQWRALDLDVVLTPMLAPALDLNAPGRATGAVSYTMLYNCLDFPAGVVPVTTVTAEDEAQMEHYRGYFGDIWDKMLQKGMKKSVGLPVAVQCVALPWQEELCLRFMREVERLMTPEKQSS
The assay can be described thus: Human FAAH lysate assay (CHO cell lysate expressing FAAH, AAMCA or 3H-anandamide hydrolysis). It counts as biochemical. The settings on record: B series; read-out: Human FAAH lysate assay: IC50. An excerpt: To assist in assay development stable cell lines for human, murine and rat full length FAAH were developed. […] The full length FAAH was subcloned into the mammalian expression vector, peDEF.neo, using XbaI and EcoRI restriction sites and used for stable cell line generation.
CHO cells expressing FAAH were used to prepare either crude cell lysate or microsome fractions. To harvest cells, tissue culture media was decanted, the monolayer washed three times with Ca^++Mg^++ free PBS and cells recovered after […] in enzyme free dissociation media (Millipore Corp, Billerica, Mass.). Cells were collected by centrifuging at 2000 rpm for 15 min. and the cell pellet re-suspended with 50 mM HEPES (pH 7.4) containing 1 mM EDTA and the protease inhibitors aprotinin (1 mg/ml) and leupeptin (100 μM). The suspension was sonicated at 4° C. and the cell lysate recovered after centrifuging at 12,000×g (14,600 rpm, SS34 rotor) for 20 min at 4° C. to form a crude pellet of cell debris, nuclei, peroxisomes, lysosomes, and mitochondria; the supernatant or cell lysate was used for FAAH enzyme assay. In some cases, microsomes fractions enriched in FAAH were prepared by centrifuging the cell lysate further at 27,000 rpm (100,000×g) in SW28 rotor for 50 minutes at 4° C. The pellet containing FAAH-enriched microsomes was re-suspend in 50 mM HEPES, (pH 7,4) 1 mM EDTA, and any remaining DNA sheared by passage of material through a 23 gauge needle and aliquots of enzyme were store at −80° C. prior to use.
Assays are performed on either cell lysate or microsome fractions prepared as described or in whole cell format employing either the fluorescent substrate AAMCA (Cayman chemical, Ann Arbor, Mich.,) or ^3H-anandamide ([ETHANOLAMINE-1-3H] American Radiolabeled Chemicals; 1 mCi/ml). The cell lysate or microsome assay is performed in Costar black wall, clear bottom plates by adding FAAH_CHO (whole cell, cell lysate or microsome) in assay buffer (50 mM Phosphate, pH 8.0, 1 mM EDTA, 200 mM KCl, 0.2% glycerol, 0.1% fatty acid free BSA) to each well, followed by either DMSO or compound and allowed to incubate at 22-25° C. for fifteen minutes. AAMCA substrate was used to achieve a final concentration of 1 μM and reaction allowed to proceed at room temperature for 1-3 hours. […] Whole cell assay is conducted with cells harvested after rinsing tissue culture flasks three times with Ca^++Mg^++ free PBS, incubating for 10 mm in Enzyme free dissociation media and centrifuging for 5 minutes at 1,000 rpm in table top centrifuge. Cells are resuspended in assay buffer at desired cell number in (4×10^4 cells/assay in 96-well format; 1×10^4 cells/assay in 384-well format) and assayed as described.
Alternatively, assays are performed using anandamide [ethanolamine 1-^3H] (specific activity of 10 Ci/mmol) diluted with cold anandamide to achieve a final assay concentration of 1 μM anandamide (˜50,000 cpm). Enzyme (CHO cell lysate, brain or liver homogenate) is incubated in assay buffer (50 mM Phosphate, pH 8.0, 1 mM EDTA, 200 mM KCl, 0.2% glycerol, 0.1% fatty acid free BSA) with inhibitor at 25° C. for 30 minutes. The reaction was terminated by addition of 2 volumes of chloroform:methanol (1:1) and mixed by vortexing. Following a centrifugation step, 2000 rpm for 10 min. at room temperature, the aqueous phase containing the released […] was recovered and quantitated by liquid scintillation as a reflection of FAAH enzyme activity.
In general, IC50 refers to the point on the concentration scale where inhibition reaches its midpoint. With `Cn1cnc(-c2ccc([C@H]3C[C@@H]3c3n[nH]c(=O)[nH]3)cc2)c1Sc1ccc(Cl)cn1` [Example 33B, 5-[(1S,2S)-2-(4-{5-[(5-chloropyridin-2-yl)thio]-1-methyl-1H-imidazol-4-yl}phenyl)cyclopropyl]-2,4-dihydro-3H-1,2,4-triazol-3-one], the IC50 stood at 545 nM.

Regarding `CN(C)C(=O)[C@H]1C[C@@H]1c1ccc(-c2ncn(CCF)c2Sc2ccc(Cl)cn2)cc1` [Example 14B, 5-[(5-Chloropyridin-2-yl)thio]-4-(4-{(1S,2S)-2-[(dimethylamino)carbonyl]cyclopropyl}phenyl)-1-(2-fluoroethyl)-1H-imidazol-3-ium trifluoroacetate], the IC50 came to 3.2 nM.

For `Cn1cnc(-c2ccc([C@H]3C[C@@H]3CO)cc2)c1Sc1ccc(Cl)cn1` [Example 23B, [(1S,2S)-2-(4-{5-[(5-Chloropyridin-2-yl)thio]-1-methyl-1H-imidazol-4-yl}phenyl)cyclopropyl]methanol], the IC50 turned out to be 88.4 nM. For `Cc1nc(-c2ccc([C@@H]3C[C@H]3C(=O)N(C)C)cc2)c(Sc2ccc(Cl)cn2)n1C` [Example 12B, (1R,2R)-2-(4-{5-[(5-Chloropyridin-2-yl)thio]-1,2-dimethyl-1H-imidazol-4-yl}phenyl)-N,N-dimethylcyclopropanecarboxamide], the half-maximal inhibitory concentration (IC50) was determined as 13.6 nM. On the same count and under the same terms, as for `Cn1cnc(-c2ccc([C@H]3C[C@@H]3COCCF)cc2)c1Sc1ccc(Cl)cn1` [Example 25B, 5-Chloro-2-{[4-(4-{(1S,2S)-2-[(2-fluoroethoxy)methyl]cyclopropyl}phenyl)-1-methyl-1H-imidazol-5-yl]thio}pyridine], the figure is 69.3 nM; as for `COC(=O)[C@H]1C[C@@H]1c1ccc(-c2ncn(C)c2Sc2ccc(Cl)cn2)cc1` [Example 21B, Methyl (1S,2S)-2-(4-{5-[(5-chloropyridin-2-yl)thio]-1-methyl-1H-imidazol-4-yl}phenyl)cyclopropanecarboxylate], 0.2 nM. The same measure, in the same setting: as for `CN(C)C(=O)[C@H]1C[C@@H]1c1ccc(-c2ncn(C)c2Sc2ccc(Cl)cn2)cc1` [Example 5B, (1S,2S)-2-(4-{5-[(5-Chloropyridin-2-yl)thio]-1-methyl-1H-imidazol-4-yl}phenyl)-N,N-dimethylcyclopropanecarboxamide], the figure is 1 nM; as for `Cn1cnc(-c2ccc([C@H]3C[C@@H]3c3ncon3)cc2)c1Sc1ccc(Cl)cn1` [Example 35B, 5-chloro-2-[(1-methyl-4-{4-[(1S,2S)-2-(1,2,4-oxadiazol-3-yl)cyclopropyl]phenyl}-1H-imidazol-5-yl)thio]pyridine], 58.4 nM; as for `CN(C)C(=O)[C@H]1C[C@@H]1c1ccc(-c2ncn(C)c2Sc2ccc(Cl)cc2)cc1` [Example 9B], 0.3 nM.

Still in this assay, the particulars now being: tables of the B series; read-out: hFAAH lysate IC50.
On to `Cn1cnc(-c2ccc([C@H]3C[C@@H]3c3n[nH]c(=O)o3)cc2)c1Sc1ccc(Cl)cc1F` [Example 42B], for which the half-maximal inhibitory concentration (IC50) was 1.8 nM.

On to `NC(=O)[C@H]1C[C@@H]1c1ccc(-c2ncn(CCF)c2Sc2ccc(Cl)cn2)cc1` [Example 16B], for which the IC50 was determined as 12.7 nM. In the case of `Cn1cnc(-c2ccc([C@H]3C[C@@H]3c3n[nH]c(=O)o3)cc2)c1Sc1ccc(F)cc1F` [Example 41B], the IC50 is 1.3 nM. Same read-out and setting: as for `CNC(=O)C1CC1c1ccc(-c2ncn(C)c2Sc2ccc(Cl)cn2)cc1` (stereo not drawn) [Example 3B], the figure is 1.4 nM.

The next assay has as its system Complete Freunds Adjuvant model of inflammatory pain. The assay can be described thus: Combination study: isobolographic analysis in the Complete Freunds Adjuvant model of inflammatory pain. The assay is classed as in vivo. The settings on record: rat, PO, etoricoxib:Compound A dose ratios 1:1, 0.3:1 and 3:1. The procedure: Etoricoxib and Compound A were tested in PO dose ratios of 1:1, 0.3:1, and 3:1.
In the case of `CC(C)(O)c1ccc(-c2nc(-c3ccc(F)c(F)c3)oc2Sc2ccc(Cl)cn2)cn1` [compound A], the “Interaction of analgesic effect against inflammatory pain when co-dosed (isobologram)” value is “additive”. The same measure, in the same setting: to `Cc1ccc(-c2ncc(Cl)cc2-c2ccc(S(C)(=O)=O)cc2)cn1` [etoricoxib, reference compound] belongs “additive”.
